Measurements published in article PMC5794461, “Kinetic analysis of the isoleucyl‐tRNA synthetase mechanism: the next reaction cycle can start before the previous one ends” (FEBS Open Bio, 2017).

Biological target: T1, isoleucyl-tRNA synthetase (IleRS) (Escherichia coli, UniProt P00956)
T1 construct: gene ileS; full-length native enzyme purified from E. coli B; one-subunit enzyme
Assay: global best fit of steady-state ATP-PPi exchange and tRNA aminoacylation rates
Format: biochemical
Settings: AMP·E (segment 1), competitive with MgATP; pH 7.4, 30 °C, Mg-acetate, 50 mM K-acetate, no chloride; unreliable: fitted range open above (360 <)
Source text: global best fit of steady-state ATP-PPi exchange and tRNA aminoacylation rates on isoleucyl-tRNA synthetase (IleRS)

T1 sequence (P00956 2-938): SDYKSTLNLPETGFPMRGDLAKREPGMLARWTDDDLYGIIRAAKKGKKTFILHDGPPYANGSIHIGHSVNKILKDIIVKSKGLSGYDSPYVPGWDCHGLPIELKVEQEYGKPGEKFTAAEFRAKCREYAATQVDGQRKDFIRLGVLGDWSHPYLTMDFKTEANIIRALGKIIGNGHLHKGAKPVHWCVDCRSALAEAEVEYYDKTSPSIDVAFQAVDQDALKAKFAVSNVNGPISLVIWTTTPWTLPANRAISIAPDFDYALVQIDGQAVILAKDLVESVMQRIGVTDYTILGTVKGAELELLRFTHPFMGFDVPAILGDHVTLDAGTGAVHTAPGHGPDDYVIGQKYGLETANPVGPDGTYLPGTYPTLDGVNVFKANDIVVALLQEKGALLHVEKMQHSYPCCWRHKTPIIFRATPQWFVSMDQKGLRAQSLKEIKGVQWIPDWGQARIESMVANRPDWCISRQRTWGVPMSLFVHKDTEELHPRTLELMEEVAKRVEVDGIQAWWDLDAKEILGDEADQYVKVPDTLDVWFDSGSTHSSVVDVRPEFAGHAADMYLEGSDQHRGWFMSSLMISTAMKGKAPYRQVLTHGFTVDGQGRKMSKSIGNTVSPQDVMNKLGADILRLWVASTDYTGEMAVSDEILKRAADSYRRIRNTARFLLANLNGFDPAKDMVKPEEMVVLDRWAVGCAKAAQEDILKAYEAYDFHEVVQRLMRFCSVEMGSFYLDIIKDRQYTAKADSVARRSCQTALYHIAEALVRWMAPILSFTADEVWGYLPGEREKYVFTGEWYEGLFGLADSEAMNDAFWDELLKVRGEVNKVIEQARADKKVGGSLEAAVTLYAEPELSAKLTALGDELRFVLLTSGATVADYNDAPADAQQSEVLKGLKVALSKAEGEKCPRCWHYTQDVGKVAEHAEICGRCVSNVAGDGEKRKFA

Nc1ncnc2c1ncn2[C@@H]1O[C@H](COP(=O)(O)O)[C@@H](O)[C@H]1O [AMP]
Value: 705 µM
